Laboratory results reported in patent US20180312886A1, “MICROBIAL PRODUCTION OF CHEMICAL PRODUCTS AND RELATED COMPOSITIONS, METHODS AND SYSTEMS” (CARGILL INCORPORATED, priority 2014, published 2018).

How the values were obtained:
[1] = target: KASI ketoacyl-ACP synthase (e.g., fabB in E. coli) (Escherichia coli, UniProt P0A953); details: KX3_0001, fed-batch medium, 24 h
Description: Cultures were started from freezer stocks by standard practice (Sambrook and Russell, 2001) into 50 mL of LB media plus 100 μg/mL ampicillin and grown to stationary phase overnight at 37° C. with rotation at 225 rpm. Five ml of this culture were transferred to 100 ml of fed-batch or AM2 media plus 40 g/L glucose, 100 kg/ml ampicillin, 1 mM IPTG in triplicate 250-ml baffled flasks, and incubated at 37° C., 225 rpm. […] Dry cell weight (DCW) is calculated as 0.33 times the measured OD600 value, based on baseline DCW to OD600 determinations. All data are the average of triplicate cultures.

[2] = tested on: fatty acid synthase system; type: cell-based, E. coli

Sequence of KASI ketoacyl-ACP synthase (e.g., fabB in E. coli) (P0A953 whole entry): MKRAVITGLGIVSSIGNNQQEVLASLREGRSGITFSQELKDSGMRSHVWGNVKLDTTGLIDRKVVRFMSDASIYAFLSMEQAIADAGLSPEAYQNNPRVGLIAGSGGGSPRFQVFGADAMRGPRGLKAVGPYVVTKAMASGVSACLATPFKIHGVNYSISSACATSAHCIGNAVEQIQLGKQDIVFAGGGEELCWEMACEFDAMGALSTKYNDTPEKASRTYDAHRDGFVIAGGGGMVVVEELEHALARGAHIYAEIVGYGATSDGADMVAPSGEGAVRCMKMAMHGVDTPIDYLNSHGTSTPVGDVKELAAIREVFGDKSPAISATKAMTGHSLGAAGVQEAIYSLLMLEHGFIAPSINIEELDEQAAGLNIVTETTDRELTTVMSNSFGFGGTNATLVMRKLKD

C/C=C/C/C=C/CCC(=O)[C@H]1O[C@H]1C(N)=O [cerulenin]
increase in specific productivity relative to the results without cerulenin [1]: 31 fold | increase in specific productivity relative to the results without cerulenin ([2]; BX3_0206, SM3 medium, 24 hours): approximately 40 fold | 3HP ([2]; strain BX3_0194, SM3 medium, cerulenin, 4 hr): 0.003 gIL
